In patent publication US20050113349A1, “2-Alpha vitamin D derivatives having substituents” (Hiroaki TAKAYAMA, priority 1999, published 2005) one finds Binding property data, which are given here for 5 compounds.

For this experiment, the target named is T1, Vitamin D Receptor (VDR) (Bos taurus, UniProt Q28037).
T1 construct: Bovine thymus 1α,25-dihydroxyvitamin D3 receptor was purchased; purchased YAMASA SHOYU KABUSHIKI KAISHA lot.110431; host or cells: bovine thymus (tissue preparation)
T1 sequence (Q28037 1-426): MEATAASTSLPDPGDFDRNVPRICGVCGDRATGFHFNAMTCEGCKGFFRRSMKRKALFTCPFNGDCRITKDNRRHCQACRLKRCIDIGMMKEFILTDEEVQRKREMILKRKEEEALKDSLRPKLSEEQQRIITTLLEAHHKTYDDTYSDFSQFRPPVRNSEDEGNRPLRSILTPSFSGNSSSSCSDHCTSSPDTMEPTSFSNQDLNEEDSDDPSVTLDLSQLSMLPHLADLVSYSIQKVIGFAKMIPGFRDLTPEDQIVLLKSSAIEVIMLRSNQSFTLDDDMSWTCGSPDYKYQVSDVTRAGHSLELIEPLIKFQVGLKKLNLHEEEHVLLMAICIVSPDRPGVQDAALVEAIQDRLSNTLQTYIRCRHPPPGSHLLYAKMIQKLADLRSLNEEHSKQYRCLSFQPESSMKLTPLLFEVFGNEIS
The experiment in a line: Assay for binding to vitamin D receptor (VDR), displacement of [3H]-1α,25-dihydroxyvitamin D3. Conditions: relative value with that of 1α,25-dihydroxyvitamin D3 taken as 100; bovine thymus receptor; [3H]-1α,25-dihydroxyvitamin D3 0.1 nM; overnight at 4° C. The protocol: Assay for Binding to Vitamin D Receptor (VDR)
Bovine thymus 1α,25-dihydroxyvitamin D3 receptor was purchased from YAMASA SHOYU KABUSHIKI KAISHA (lot.110431) and 1 ampule (approximately 25 mg) of the receptor was dissolved in 55 mL of 0.05 M phosphate 0.5M potassium buffer (pH 7.4) just before use. Ethanol solutions (50 μl) of 1α,25-dihydroxyvitamin D3 and Compounds 31-35 of the present invention at various concentrations were prepared, mixed with aliquots (500 μl, 0.23 mg protein) of the receptor solution and pre-incubated at room temperature for 1 hour. To the resultant mixtures, [^3H]-1α,25-dihydroxyvitamin D3 was added at the final concentration of 0.1 nM, followed by incubation overnight at 4° C.
The reaction mixtures were treated with dextran coated charcoal for 30 minutes at 4° C. to separate the bound and free forms of [^3H]-1α,25-dihydroxyvitamin D3, and centrifuged at 3000 rpm for ten minutes. Each of the resultant supernatants (500 μl) was mixed with ACS-II (9.5 ml) (AMERSHAM, England) for radioactivity measurement.
The binding properties of Compounds 31-35 of the present invention were expressed in relative values with that of 1α,25-dihydroxyvitamin D3 taken as 100.
(In general: Displacement assays read how much labelled ligand stays bound in the presence of the test substance.)
As to `C=C1C(=CC=C2CCCC3(C)C2CCC3C(C)CCCC(C)(C)O)CC(O)C(CCO)C1O` [Compound 32, (5Z,7E)-(1S,2S,3R,20R)-9,10-seco-5,7,10(19)-cholestatriene-2-(2′-hydroxyethyl)-1,3,25-triol], the Binding property was 70.

Take “(5Z,7E)-(1S,2S,3R,20R)-9,10-seco-5,7,10(19)-cholestatriene-2-hydroxymethyl-1,3,25-triol [Compound 31]”: the Binding property came out at 20. Turning to “(5Z,7E)-(1S,2S,3R,20R)-9,10-seco-5,7,10(19)-cholestatriene-2-(3′-hydroxypropyl)-1,3,25-triol [Compound 33]”, the Binding property came to 300. For `C=C1C(=CC=C2CCCC3(C)C2CCC3C(C)CCCC(C)(C)O)CC(O)C(CCC)C1O` [Compound 35, (5Z,7E)-(1S,2S,3R,20R)-9,10-seco-5,7,10(19)-cholestatriene-2-propyl-1,3,25-triol] the value was 20; for `C=C1/C(=C\C=C2/CCC[C@]3(C)[C@@H]([C@H](C)CCCC(C)(C)O)CC[C@@H]23)C[C@@H](O)[C@H](CC)[C@@H]1O` [Compound 34, (5Z,7E)-(1S,2S,3R,20R)-9,10-seco-5,7,10(19)-cholestatriene-2-ethyl-1,3,25-triol], 40.
